Results from patent US20260035367A1 (Celgene Corporation, priority 2021, published 2026).
pIC50: −log10 of the molar value. Where a name gives a salt, the structure may show the parent alone. Read-outs that look alike come from different tables or passages of the source.

Key:
[1] = system: IL-2 secretion by human effector memory T cells (TEM); experiment: Effector memory T cells IL-2 release assay (CD3/CD28 stimulation, HTRF IL-2 detection); format: cell-based; conditions: 24 h; for IC50: Homo sapiens, T-cell
Procedure, shortened: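 Human effector memory T cells from healthy-donor buffy coats were exposed in triplicate to ten semi-log doses of compound in 0.1% DMSO. The cells were stimulated and incubated 24 h at 37 °C. Secreted IL-2 in the supernatant was measured by HTRF.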

[2] = target: T1, Recombinant human PKC-delta (His-tagged 345-676) (Homo sapiens, UniProt Q05655); experiment: PKC-delta inhibition assay (HTRF KinEASE kit); format: biochemical; conditions: ratio, PKC-theta vs PKC-delta HTRF; for PKC-theta/PKC-delta selectivity (binned): binned A to G
T1 construct: PKC-delta (His-tagged 345-676); His
T1 sequence (Q05655 345-676): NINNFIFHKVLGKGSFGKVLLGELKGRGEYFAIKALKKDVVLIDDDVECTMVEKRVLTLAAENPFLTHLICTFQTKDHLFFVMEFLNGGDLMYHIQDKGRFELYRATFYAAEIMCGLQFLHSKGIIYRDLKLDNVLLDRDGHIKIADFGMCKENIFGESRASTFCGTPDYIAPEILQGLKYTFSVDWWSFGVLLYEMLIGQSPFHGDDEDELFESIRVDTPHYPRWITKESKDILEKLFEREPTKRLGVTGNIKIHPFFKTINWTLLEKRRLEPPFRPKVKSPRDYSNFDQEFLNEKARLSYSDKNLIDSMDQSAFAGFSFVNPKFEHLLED
Experimental: PKC-theta and PKC-delta biochemical activities were measured using the PKC-theta HTRF KinEASEkit kit, according to manufacturer's instructions (Cisbio, catalogue number 61ST1PEJ). Briefly, the kinase buffer component of the kit was supplemented with 10 mM MgCl2, 1 mM DTT and 0.1% Tween 20. […] The streptavidin_XL665 and STK antibody-cryptate detection reagents were mixed according to the manufacturer's instructions. Test compounds were diluted in DMSO in a series of 10 semi-log step doses; 10 nL of each compound dose were dispensed in 384 well plates. […] The reaction was started by addition of the substrate and ATP and incubated at 25° C. for 30 minutes or 20 minutes for the PKC-theta and PKC-delta assays, respectively. The detection reagents were added, and the plate was incubated in the dark for 2 hours. […] The ratio of acceptor and donor emission signals was calculated for each well.

[3] = target: T2, Recombinant human PKC-theta (His-tagged 362-706) (Homo sapiens, UniProt Q04759); experiment: PKC-theta inhibition assay (HTRF KinEASE kit); format: biochemical; conditions: STK substrate 525 nM
T2 construct: Recombinant human PKC-theta (His-tagged 362-706); His
T2 sequence (Q04759 362-706): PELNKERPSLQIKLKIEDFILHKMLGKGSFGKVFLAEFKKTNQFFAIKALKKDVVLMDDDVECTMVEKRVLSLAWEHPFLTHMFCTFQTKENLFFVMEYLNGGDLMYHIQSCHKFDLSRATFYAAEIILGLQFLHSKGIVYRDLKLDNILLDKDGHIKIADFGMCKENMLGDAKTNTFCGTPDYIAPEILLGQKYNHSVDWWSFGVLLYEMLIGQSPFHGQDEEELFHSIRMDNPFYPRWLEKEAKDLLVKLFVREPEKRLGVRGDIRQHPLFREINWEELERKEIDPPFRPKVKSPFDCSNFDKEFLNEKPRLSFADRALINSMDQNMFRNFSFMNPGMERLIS
Procedure, shortened: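 IC50 values were from 4-parameter logistic fits of percent inhibition, based on acceptor/donor HTRF ratios over 10 semi-log compound doses. Kinase reactions, started with substrate plus ATP, ran 30 min at 25 °C in buffer supplemented with 10 mM MgCl2, 1 mM DTT and 0.1% Tween 20; detection lasted 2 h.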

[4] = binned A to G, read-out: PKC-theta IL2 pIC50 (binned) (converted)
[5] = read-out: PKC-theta IL2 pIC50 (converted)
[6] = ATP 6.5 μM, binned A to H, read-out: PKC-theta HTRF pIC50 (binned) (converted)
[7] = ATP 6.5 μM, read-out: PKC-theta HTRF pIC50 (converted)

Structure (SMILES)	IC50 [1, 4]	IC50 [1, 5]	PKC-theta/PKC-delta selectivity [2]	PKC-theta/PKC-delta selectivity (binned) [2]	IC50 [3, 6]	IC50 [3, 7]	PKC-theta IL2 pIC50 (binned) ([1]; binned A to G)	PKC-theta IL2 pIC50 [1]	pIC50 ([3]; PKC-theta HTRF pIC50 (binned), ATP 6.5 μM, binned A to H)	pIC50 ([3]; PKC-theta HTRF pIC50, ATP 6.5 μM)
O=c1[nH]c2nccc(-c3cc(C(F)(F)F)cc(N4CCNCC4)n3)c2[nH]1 [Example 68]	316 to 1000 nM	501 nM	11	D (a ratio of between 10 and 20)	31.6 to 100 nM	31.6 nM	–	–	–	–
C[C@@H]1CCN(c2cc(C(F)(F)F)cc(-c3ccnc4c3C(C)(C)C(=O)N4)n2)CCN1 [Example 184]	100 to 316 nM	251 nM	20	C (a ratio of between 20 and 30)	10 to 31.6 nM	10 nM	–	–	–	–
CC[C@H]1CN(c2cc(Cl)cc(-c3ccnc4c3[C@@](C)(OC)C(=O)N4)n2)CCN1 (single isomer, unassigned) [Example 151]	–	126 nM	15	D (a ratio of between 10 and 20)	10 to 31.6 nM	12.6 nM	E (a measured pIC50 of between 6.5 and 7.0)	–	–	–
C[C@@H]1CN[C@@H](C)CN1c1cc(C(F)(F)F)cc(-c2ccnc3c2C(C)(C)C(=O)N3)n1 [Example 177]	31.6 to 100 nM	63.1 nM	24	C (a ratio of between 20 and 30)	3.16 to 10 nM	6.31 nM	–	–	–	–
C[C@@H]1CNCCN1c1cc(C(F)(F)F)cc(-c2ccnc3c2C(C)(C)C(=O)N3)n1 [Example 102]	10 to 31.6 nM	20 nM	14	D (a ratio of between 10 and 20)	1 to 3.16 nM	1.58 nM	–	–	–	–
C[C@@H]1CN(c2cccc(-c3ccnc4[nH]c(=O)[nH]c34)c2)C[C@H](C)N1 [Example 11]	> 1000 nM	6310 nM	4	F (a ratio of between 1 and 5)	> 1000 nM	2510 nM	–	–	–	–
CC[C@]1(C)C(=O)Nc2nccc(-c3cc(C(C)(F)F)cc(N4CCN[C@@H](C)C4)n3)c21 (single isomer, unassigned) [Example 199]	10 to 31.6 nM	25.1 nM	16	D (a ratio of between 10 and 20)	1 to 3.16 nM	1.58 nM	–	–	–	–
CO[C@]1(C)C(=O)Nc2nccc(-c3cc(C(F)(F)F)cc(N4CCNC[C@H]4C)n3)c21 (single isomer, unassigned) [Example 176]	–	–	20	C (a ratio of between 20 and 30)	10 to 31.6 nM	12.6 nM	E (a measured pIC50 of between 6.5 and 7.0)	6.9	–	–
CC1C(=O)Nc2nccc(-c3cc(F)cc(N4CCNCC4)c3)c21 (stereo not drawn) [Example 18]	100 to 316 nM	200 nM	3	F (a ratio of between 1 and 5)	10 to 31.6 nM	25.1 nM	–	–	–	–
O=c1[nH]c2nccc(-c3cc(N4CCNCC4)ccn3)c2[nH]1 [Example 16]	> 1000 nM	10000 nM	1	G (a ratio of 0 to 1)	> 1000 nM	6310 nM	–	–	–	–
C[C@H]1CN(c2ccc(Cl)c(-c3ccnc4c3[C@](C)(O)C(=O)N4)c2)CCN1 [Example 107]	316 to 1000 nM	501 nM	7	E (a ratio of between 5 and 10)	31.6 to 100 nM	63.1 nM	–	–	–	–
CC[C@]1(C)C(=O)Nc2nccc(-c3cc(C(C)(F)F)cc(N4CCNC[C@H]4C)n3)c21 (single isomer, unassigned) [Example 201]	3.16 to 10 nM	7.94 nM	18	D (a ratio of between 10 and 20)	0.316 to 1 nM	0.501 nM	–	–	–	–
CC1(O)C(=O)Nc2nccc(-c3cc(F)cc(N4CCNCC4)c3)c21 (stereo not drawn) [Example 46]	100 to 316 nM	251 nM	3	F (a ratio of between 1 and 5)	10 to 31.6 nM	12.6 nM	–	–	–	–
C[C@H]1CN(c2cc(-c3ccnc4c3[C@@](C)(O)C(=O)N4)cc(C(F)(F)F)c2)CCN1 (single isomer, unassigned) [Example 81]	–	–	9	E (a ratio of between 5 and 10)	10 to 31.6 nM	25.1 nM	E (a measured pIC50 of between 6.5 and 7.0)	6.7	–	–
CC(F)(F)c1cc(-c2ccnc3c2C(C)(C)C(=O)N3)nc(N2CCCNCC2)c1 [Example 203]	31.6 to 100 nM	100 nM	14	D (a ratio of between 10 and 20)	3.16 to 10 nM	6.31 nM	–	–	–	–
C[C@H]1CNCCN1c1cccc(-c2ccnc3[nH]c(=O)[nH]c23)c1 [Example 8, 7-[3-[(2S)-2-methylpiperazin-1-yl]phenyl]-1,3-dihydroimidazo[4,5-b]pyridin-2-one dihydrochloride]	> 1000 nM	3980 nM	2	F (a ratio of between 1 and 5)	–	–	–	–	6.00 to 6.50	6.40
CCC1C(=O)Nc2nccc(-c3cccc(N4CCNCC4)c3)c21 (stereo not drawn) [Example 21]	316 to 1000 nM	1000 nM	1	F (a ratio of between 1 and 5)	316 to 1000 nM	316 nM	–	–	–	–
CC[C@]1(C)C(=O)Nc2nccc(-c3cc(Cl)cc(N4CCNC[C@H]4C)n3)c21 (single isomer, unassigned) [Example 165]	31.6 to 100 nM	63.1 nM	12	D (a ratio of between 10 and 20)	3.16 to 10 nM	6.31 nM	–	–	–	–
CC1(O)C(=O)Nc2nccc(-c3cc(Cl)cc(N4CCNCC4)c3)c21 (stereo not drawn) [Example 55]	316 to 1000 nM	398 nM	9	E (a ratio of between 5 and 10)	10 to 31.6 nM	10 nM	–	–	–	–
C[C@H]1NCCN(c2cc(C(F)(F)F)cc(-c3ccnc4c3C(C)(C)C(=O)N4)n2)[C@H]1C [Example 127]	–	25.1 nM	15	D (a ratio of between 10 and 20)	1 to 3.16 nM	1.26 nM	C (a measured pIC50 of between 7.5 and 8.0)	–	–	–
C[C@H]1CNCCN1c1cc(F)cc(-c2ccnc3c2C(C)(C)C(=O)N3)c1 [Example 30]	316 to 1000 nM	794 nM	2	F (a ratio of between 1 and 5)	31.6 to 100 nM	31.6 nM	–	–	–	–
CC1(C)C(=O)Nc2nccc(-c3cc(F)cc(N4CCNCC4)c3)c21 [Example 29]	316 to 1000 nM	501 nM	1	F (a ratio of between 1 and 5)	31.6 to 100 nM	31.6 nM	–	–	–	–
O=c1[nH]c2nccc(-c3cc(N4CCNCC4)ccc3F)c2[nH]1 [Example 15]	> 1000 nM	10000 nM	3	F (a ratio of between 1 and 5)	316 to 1000 nM	501 nM	–	–	–	–
O=C1Nc2nccc(-c3cc(F)cc(N4CCNCC4)c3)c2C12CCCC2 [Example 36]	100 to 316 nM	251 nM	1	F (a ratio of between 1 and 5)	10 to 31.6 nM	20 nM	–	–	–	–
CC1(C)C(=O)Nc2nccc(-c3cc(C(F)F)cc(N4CCNCC4)n3)c21 [Example 87]	100 to 316 nM	100 nM	10	D (a ratio of between 10 and 20)	3.16 to 10 nM	6.31 nM	–	–	–	–
C[C@@H]1CN(c2cc(C(F)(F)F)cc(-c3ccnc4c3[C@](C)(O)C(=O)N4)n2)CCN1 (single isomer, unassigned) [Example 108]	100 to 316 nM	126 nM	15	D (a ratio of between 10 and 20)	10 to 31.6 nM	12.6 nM	–	–	–	–
CCC1(O)C(=O)Nc2nccc(-c3cc(C(F)(F)F)cc(N4CCN[C@@H](C)C4)n3)c21 (stereo partly drawn) [Example 111]	100 to 316 nM	126 nM	17	D (a ratio of between 10 and 20)	3.16 to 10 nM	5.01 nM	–	–	–	–
